The subject of this experiment is BDF1 mice, P388 leukemia ip, median survival T/C. The experiment can be described thus: NCI In Vivo Anticancer Drug Screen. Data for tumor model P388 Leukemia (intraperitoneal) in B6D2F1 (BDF1) mice. To be noted: endpoint: median survival time, higher = longer survival. The essentials:
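Steps: implant the tumour, treat one group with compound and another with vehicle, record survival, then divide treated by control.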

Setting [1] is: dose: 100.0 mg/kg/injection, schedule: Q01DX009 (ip), vehicle: saline.
The mark [2] stands for this setting: dose: 200.0 mg/kg/injection, schedule: Q01DX009 (ip), vehicle: saline.
Setting [3] is: dose: 12.5 mg/kg/injection, schedule: Q01DX009 (ip), vehicle: saline with Tween-80.
The mark [4] stands for this setting: dose: 25.0 mg/kg/injection, schedule: Q01DX009 (ip), vehicle: saline with Tween-80.
[5] abbreviates: dose: 50.0 mg/kg/injection, schedule: Q01DX009 (ip), vehicle: saline with Tween-80.
[6] abbreviates: dose: 100.0 mg/kg/injection, schedule: Q01DX009 (ip), vehicle: Klucel (hydroxypropylcellulose) (HPC).
Setting [7] is: dose: 200.0 mg/kg/injection, schedule: Q01DX009 (ip), vehicle: Klucel (hydroxypropylcellulose) (HPC).
Where [8] appears, read: dose: 100.0 mg/kg/injection, schedule: Q04DX003 (ip), vehicle: saline with Tween-80.
[9] abbreviates: dose: 200.0 mg/kg/injection, schedule: Q04DX003 (ip), vehicle: saline with Tween-80.
Where [10] appears, read: dose: 400.0 mg/kg/injection, schedule: Q04DX003 (ip), vehicle: saline with Tween-80.

Where “and” joins values, the source holds several entries; their conditions need not be identical. Equal entries are not always repeated. Inconclusive results and toxic doses are left out.

As for `CS(=O)(=O)Nc1ccc(Nc2c3ccccc3nc3cc(Cl)ccc23)cc1`, the T/C (dose: 9.6 mg/kg/injection, schedule: Q04DX003 (ip), vehicle: Klucel (hydroxypropylcellulose) (HPC)) is 100 % of control; the T/C (dose: 14.0 mg/kg/injection, schedule: Q04DX003 (ip), vehicle: Klucel (hydroxypropylcellulose) (HPC)) is 104 % of control; the T/C (dose: 132.0 mg/kg/injection, schedule: Q04DX003 (ip), vehicle: saline) is 260 % of control and 195 % of control; the T/C (dose: 200.0 mg/kg/injection, schedule: Q04DX003 (ip), vehicle: saline) is 272 % of control and 205 % of control; the T/C (dose: 300.0 mg/kg/injection, schedule: Q04DX003 (ip), vehicle: saline) is 259 % of control.

On to `CC(C)=CC(=O)OCC1CC[N+](C)([O-])C1` (stereo not given), for which the T/C by setting is: under setting [1], 100 % of control; (dose: 200.0 mg/kg/injection, schedule: Q01DX001 (ip), vehicle: saline) 95 % of control; under setting [2], 91 % of control; (dose: 400.0 mg/kg/injection, schedule: Q01DX009 (ip), vehicle: saline) 103 % of control; (dose: 800.0 mg/kg/injection, schedule: Q01DX001 (ip), vehicle: saline) 91 % of control; (dose: 800.0 mg/kg/injection, schedule: Q01DX009 (ip), vehicle: saline) 103 % of control.

Regarding `CCc1ccc(/C=C/c2ccc(O)c3ncccc23)[n+](C)c1`, the T/C is 100 % of control (dose: 0.74 mg/kg/injection, schedule: Q01DX009 (ip), vehicle: saline); 109 % of control (dose: 1.1 mg/kg/injection, schedule: Q01DX009 (ip), vehicle: saline); 108 % of control (dose: 1.7 mg/kg/injection, schedule: Q01DX009 (ip), vehicle: Klucel (hydroxypropylcellulose) (HPC)); 150 % of control (dose: 1.7 mg/kg/injection, schedule: Q01DX009 (ip), vehicle: saline); 160 % of control (dose: 2.6 mg/kg/injection, schedule: Q01DX009 (ip), vehicle: saline); 122 % of control (dose: 4.1 mg/kg/injection, schedule: Q01DX009 (ip), vehicle: Klucel (hydroxypropylcellulose) (HPC)). The T/C is 150 % of control (dose: 8.0 mg/kg/injection, schedule: Q01DX009 (ip), vehicle: Klucel (hydroxypropylcellulose) (HPC)); 170 % of control (dose: 8.0 mg/kg/injection, schedule: Q01DX009 (ip), vehicle: saline with Tween-80); 122 % of control (dose: 8.0 mg/kg/injection, schedule: Q04DX003 (ip), vehicle: saline); 154 % of control (dose: 10.56 mg/kg/injection, schedule: Q01DX009 (ip), vehicle: saline with Tween-80); 170 % of control (dose: 16.0 mg/kg/injection, schedule: Q01DX009 (ip), vehicle: Klucel (hydroxypropylcellulose) (HPC)); 159 % of control and 179 % of control (dose: 16.0 mg/kg/injection, schedule: Q01DX009 (ip), vehicle: saline with Tween-80). Further, the T/C is 160 % of control and 166 % of control (dose: 16.5 mg/kg/injection, schedule: Q01DX009 (ip), vehicle: Klucel (hydroxypropylcellulose) (HPC)); 158 % of control (dose: 24.0 mg/kg/injection, schedule: Q01DX009 (ip), vehicle: saline with Tween-80); 171 % of control and 185 % of control (dose: 25.0 mg/kg/injection, schedule: Q01DX009 (ip), vehicle: Klucel (hydroxypropylcellulose) (HPC)); 179 % of control (dose: 32.0 mg/kg/injection, schedule: Q01DX009 (ip), vehicle: saline with Tween-80).

As to `COc1cccc(/C=N/NC(=O)C[n+]2ccccc2)c1OC`, the T/C under setting [3] is 104 % of control; the T/C under setting [4] was 100 % of control; the T/C under setting [5] is 104 % of control; the T/C (dose: 50.0 mg/kg/injection, schedule: Q04DX003 (ip), vehicle: saline with Tween-80) is 100 % of control.

`COc1ccc(CCN2CSC(=S)N(CCc3ccc(OC)c(OC)c3)C2)cc1OC`: the T/C under setting [6] is 100 % of control; the T/C under setting [7] was 110 % of control; the T/C (dose: 400.0 mg/kg/injection, schedule: Q01DX009 (ip), vehicle: Klucel (hydroxypropylcellulose) (HPC)) was 94 % of control.

Turning to `CCCCCSc1nc(N)nc2nc[nH]c12`, the T/C is 118 % of control under setting [6]; 100 % of control (dose: 100.0 mg/kg/injection, schedule: Q04DX003 (ip), vehicle: other); 95 % of control under setting [7]; 100 % of control (dose: 200.0 mg/kg/injection, schedule: Q04DX003 (ip), vehicle: other); 94 % of control (dose: 400.0 mg/kg/injection, schedule: Q04DX003 (ip), vehicle: other).

For `CN(C)c1ccc2cc3ccc(N(C)C)cc3nc2c1`, the T/C was 93 % of control (dose: 3.12 mg/kg/injection, schedule: Q04DX003 (ip), vehicle: water); 106 % of control (dose: 6.25 mg/kg/injection, schedule: Q04DX003 (ip), vehicle: water); 99 % of control (dose: 12.5 mg/kg/injection, schedule: Q04DX003 (ip), vehicle: water); 109 % of control (dose: 25.0 mg/kg/injection, schedule: Q04DX003 (ip), vehicle: water); 115 % of control (dose: 50.0 mg/kg/injection, schedule: Q04DX003 (ip), vehicle: water).

With `CC(C)CC(=O)C1=C(O)C(Nc2ccccc2)=CC(=O)C1=Nc1ccccc1`, the T/C is, setting by setting: under setting [8], 106 % of control; under setting [9], 118 % of control; under setting [10], 111 % of control.

For `CNC(=S)N/N=C(/C)CCC/C(C)=N/NC(=S)NC`, the T/C runs as follows: (dose: 6.25 mg/kg/injection, schedule: Q01DX009 (ip), vehicle: saline with Tween-80) 106 % of control; under setting [3], 108 % of control; under setting [4], 99 % of control.

`O=C(O)C(=O)O.OO.OO.OO.[Nb]`: the T/C under setting [2] was 86 % of control.

On to `N#CC(C#N)=C(C#N)C#N`, for which the T/C reads like this: (dose: 0.78 mg/kg/injection, schedule: Q01DX009 (ip), vehicle: Klucel (hydroxypropylcellulose) (HPC)) 90 % of control; (dose: 1.56 mg/kg/injection, schedule: Q01DX009 (ip), vehicle: Klucel (hydroxypropylcellulose) (HPC)) 100 % of control; (dose: 1.56 mg/kg/injection, schedule: Q04DX003 (ip), vehicle: Klucel (hydroxypropylcellulose) (HPC)) 100 % of control; (dose: 3.13 mg/kg/injection, schedule: Q01DX009 (ip), vehicle: Klucel (hydroxypropylcellulose) (HPC)) 100 % of control; (dose: 3.13 mg/kg/injection, schedule: Q04DX003 (ip), vehicle: Klucel (hydroxypropylcellulose) (HPC)) 100 % of control.

For `CC(=O)CC(C)=O.CC(=O)CC(C)=O.[CH3][Sn][CH3]`, the T/C by setting is: (dose: 25.0 mg/kg/injection, schedule: Q01DX001 (ip), vehicle: Klucel (hydroxypropylcellulose) (HPC)) 111 % of control; (dose: 50.0 mg/kg/injection, schedule: Q01DX001 (ip), vehicle: Klucel (hydroxypropylcellulose) (HPC)) 119 % of control.

As for `CCCCC(CC)C1NCCO1` (stereo not given), the T/C under setting [5] is 103 % of control; the T/C under setting [8] is 110 % of control; the T/C (dose: 200.0 mg/kg/injection, schedule: Q01DX009 (ip), vehicle: saline with Tween-80) is 92 % of control; the T/C under setting [9] is 115 % of control; the T/C under setting [10] is 115 % of control.

On to `N=C(N)N.O=S(=O)(O)[O][Al]1[O]S(=O)(=O)[O]1`, for which the T/C was 87 % of control (dose: 25.0 mg/kg/injection, schedule: Q01DX009 (ip), vehicle: saline); 100 % of control (dose: 50.0 mg/kg/injection, schedule: Q01DX009 (ip), vehicle: saline); 95 % of control under setting [1].

In the case of `Nc1nc(=S)c2ncn(C3OC(COC(=O)c4ccccc4)C(OC(=O)c4ccccc4)C3OC(=O)c3ccccc3)c2[nH]1` (stereo not given), the T/C was 120 % of control (dose: 13.2 mg/kg/injection, schedule: Q01DX009 (ip), vehicle: saline with Tween-80); 154 % of control (dose: 33.0 mg/kg/injection, schedule: Q01DX009 (ip), vehicle: saline with Tween-80); 90 % of control (dose: 75.0 mg/kg/injection, schedule: Q01DX009 (ip), vehicle: saline with Tween-80); 163 % of control (dose: 100.0 mg/kg/injection, schedule: Q04DX003 (ip), vehicle: saline).

(Values after PubChem BioAssay AID328 (DTP/NCI, 2004).)
